*1 amine or outer side, *2 acyl side, *3 side chain or, on linkers, in order; H or OH if unused. Where a SMILES comes first, the peptide text is derived from it. Bridges are numbered along the chain shown (N, C = ends). [ ]: non-standard residue; d: D form. X1 = Cc1ccc(-c2ccc(-c3cn([C@H]4C[C@@H](C(=O)[*:2])N([*:1])C4)nn3)cc2)s1
What was measured:
[1] = system: SARS-CoV-1 pseudoviruses; assay type: cell-based
[2] = system: SARS-CoV-2 pseudoviruses; assay type: cell-based
[3] = system: SARS-CoV-1 pseudoviruses
[4] = system: SARS-CoV-2 pseudoviruses; assay type: cell-based; remark: listed apart in the source
[5] = system: SARS-CoV-2 pseudoviruses
[6] = biological target: SARS-CoV-2 spike S2 subunit (Severe acute respiratory syndrome coronavirus 2, UniProt P0DTC2)
[7] = system: SARS-CoV-1 pseudoviruses; assay type: cell-based; remark: listed apart in the source
[8] = system: HIVBal.01; conditions: read-out: HIVBal.01 IC50
[9] = system: Fully-infected HIVNL4.3; conditions: read-out: Fully-infected HIVNL4.3 IC50
[10] = system: HIV-1; assay type: in vivo; conditions: animal model
[11] = system: HIVJRFL; conditions: read-out: HIVJRFL IC50
[12] = system: clade_AE envelope; assay type: binding, HIV-1

| Compound | inhibition of SARS-CoV-1 pseudovirus infection [1] | irreversible inactivation of SARS-CoV-2 [2] | virolysis of SARS-CoV-1 pseudoviruses [3] | inhibition of SARS-CoV-2 pseudovirus infection [4] | virolysis of SARS-CoV-2 pseudoviruses [5] | stoichiometry of binding, S2 versus S1 [6] | irreversible inactivation of SARS-CoV-1 [7] | IC50 [8] | IC50 [9] | HIV-1 viral load normalized to Hu CD4+ T cell counts [10] | IC50 [11] | binding to clade_AE envelope [12] |
| --- | --- | --- | --- | --- | --- | --- | --- | --- | --- | --- | --- | --- |
| GRFT: lectin Griffithsin, SEQ ID NO:2 | reduced inhibition of infection | partial irreversible inactivation | does not causes significant virolysis | reduced inhibition of infection | does not causes significant virolysis | higher for the S2 subunit as compared to the S1 subunit | partial irreversible inactivation | – | – | – | – | – |
| CC[C@H](C)[C@@H]1NC(=O)[C@H](CC(N)=O)NC(=O)[C@@H](N)CC(=O)NCCCC[C@@H](C(N)=O)NC(=O)[C@H](Cc2c[nH]c3ccccc23)NC(=O)[C@@H]2C[C@H](n3cc(-c4ccc(-c5ccc(C)s5)cc4)nn3)CN2C1=O [AAR029N2, (3S,6S,14S,17S,20S,24S,25aS)-3-((1H-indol-3-yl)methyl)-14-amino-17-(2-amino-2-oxoethyl)-20-((S)-sec-butyl)-24-(4-(4-(5-methylthiophen-2-yl)phenyl)-1H-1,2,3-triazol-1-yl)-1,4,12,15,18,21-hexaoxotetracosahydro-1H-pyrrolo[2,1-f][1,4,7,10,13,18]hexaazacyclotricosine-6-carboxamide] (H-DNI[X1]WK-NH2; lactam 1-6) | – | – | – | – | – | – | – | ~100 nM | ~180 nM | significant efficacy in an animal model | ~112 nM | binds clade_AE envelope |

From patent publication US20230355708A1 (priority 2020, published 2023)
